# Assays:
# CDK12/CycK = CDK12/CycK (Homo sapiens, UniProt Q9NYV4); assay: CDK12/CycK high ATP kinase assay (TR-FRET, 2 mM ATP); format: biochemical; details: 2 mM ATP (high ATP); median; read-out: CDK12/CyclinK, 2 mM ATP (high ATP), IC50-[mol/l] (median)
# How it was run: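 His-tagged human CDK12/CycK (~0.75 nM) pre-incubated 15 min with compound, then 60 min at 22 °C with 2 mM ATP and 1 µM biotinylated peptide (HEPES pH 7.5, 20 mM MgCl2). EDTA stop; phospho-Ser62 antibody/Eu anti-rabbit and streptavidin-XL665 TR-FRET, 665/620 nm ratio normalised to give IC50.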
# [1] = tested on: CAL-120, human breast adenocarcinoma cells; assay: Proliferation assay CAL-120 (crystal violet, 4 days); format: cell-based; details: Homo sapiens, CAL-120, 96 h, CAL-120 cells, median, read-out: Prolif-CAL-120, IC50-[mol/l] (median)
# How it was run: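 Plated 4,000 cells/well, 10% FCS; 24 h later treated 0.01-10 µmol/L cpd (DMSO 0.1%), 4 d. Fix glutaraldehyde, stain 0.1% crystal violet pH 3.0, elute acetic acid, A595. Normalized to t0 plate/untreated; 4-param IC50.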
# Sequence of CDK12/CycK (Q9NYV4 with tags, fused parts or gaps): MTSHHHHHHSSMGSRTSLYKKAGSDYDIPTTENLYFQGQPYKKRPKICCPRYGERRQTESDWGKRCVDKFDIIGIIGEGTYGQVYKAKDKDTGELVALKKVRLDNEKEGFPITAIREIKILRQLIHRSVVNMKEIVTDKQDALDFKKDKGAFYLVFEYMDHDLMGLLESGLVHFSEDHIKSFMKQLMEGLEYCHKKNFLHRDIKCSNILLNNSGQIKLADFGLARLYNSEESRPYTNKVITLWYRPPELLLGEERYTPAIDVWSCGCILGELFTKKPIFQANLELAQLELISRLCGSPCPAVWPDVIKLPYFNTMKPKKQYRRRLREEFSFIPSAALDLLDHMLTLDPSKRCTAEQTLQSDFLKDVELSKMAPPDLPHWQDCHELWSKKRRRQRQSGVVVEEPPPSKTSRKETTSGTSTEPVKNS
# Sequence of CDK12/CycK (O75909 1-300 partner limits assumed): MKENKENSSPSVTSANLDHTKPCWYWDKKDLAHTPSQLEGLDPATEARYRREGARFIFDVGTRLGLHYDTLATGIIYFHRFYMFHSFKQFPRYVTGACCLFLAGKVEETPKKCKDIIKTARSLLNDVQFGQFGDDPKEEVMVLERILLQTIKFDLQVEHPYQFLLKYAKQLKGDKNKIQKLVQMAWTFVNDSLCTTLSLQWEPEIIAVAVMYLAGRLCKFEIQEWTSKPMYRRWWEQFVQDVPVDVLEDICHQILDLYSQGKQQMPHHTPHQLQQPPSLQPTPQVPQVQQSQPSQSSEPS
IC50 (CDK12/CycK),IC50 [1],Structure (SMILES)
> 20000 nM,31.2 nM,"CC(C)c1cnn2c(NCc3nc4ccccc4[nH]3)nc(N3CCN(C)CC3)nc12 [Example 2, N-[(1H-benzimidazol-2-yl)methyl]-2-(4-methylpiperazin-1-yl)-8-(propan-2-yl)pyrazolo[1,5-a][1,3,5]triazin-4-amine]"
> 20000 nM,,"CC(C)c1cnn2c(NCc3nc4ccccc4[nH]3)nc(N(C)C)nc12 [Example 3, N^4-[(1H-benzimidazol-2-yl)methyl]-N^2,N^2-dimethyl-8-(propan-2-yl)pyrazolo[1,5-a][1,3,5]triazine-2,4-diamine]"
5690 nM,32.5 nM,"COC1CCN(c2nc(NCc3nc4ccccc4[nH]3)n3ncc(Br)c3n2)CC1 [Example 62, N-[(1H-benzimidazol-2-yl)methyl]-8-bromo-2-(4-methoxypiperidin-1-yl)pyrazolo[1,5-a][1,3,5]triazin-4-amine]"
11500 nM,36 nM,"COC(=O)C1CCN(c2nc(NCc3nc4ccccc4[nH]3)n3ncc(Br)c3n2)CC1 [Example 63, methyl 1-(4-{[(1H-benzimidazol-2-yl)methyl]amino}-8-bromopyrazolo[1,5-a][1,3,5]triazin-2-yl)piperidine-4-carboxylate]"
5520 nM,36.1 nM,"Brc1cnn2c(NCc3nnc(-c4ccccc4)[nH]3)nc(N3CCCC3)nc12 [Example 64, 8-bromo-N-[(5-phenyl-4H-1,2,4-triazol-3-yl)methyl]-2-(pyrrolidin-1-yl)pyrazolo[1,5-a][1,3,5]triazin-4-amine]"
> 5710 nM,10 nM,"Brc1cnn2c(NCc3nnc(-c4ccccc4)[nH]3)nc(N3CC4(COC4)C3)nc12 [Example 65, 8-bromo-2-(2-oxa-6-azaspiro[3.3]heptan-6-yl)-N-[(5-phenyl-4H-1,2,4-triazol-3-yl)methyl]pyrazolo[1,5-a][1,3,5]triazin-4-amine]"
1020 nM,230 nM,"Fc1ccc(-c2cnc(CNc3nc(N4CCOCC4)nc4c(Br)cnn34)[nH]2)cc1 [Example 66, 8-bromo-N-{[5-(4-fluorophenyl)-1H-imidazol-2-yl]methyl}-2-(morpholin-4-yl)pyrazolo[1,5-a][1,3,5]triazin-4-amine]"
2740 nM,20.8 nM,"OCC1COCCN1c1nc(NCc2nc3ccccc3[nH]2)n2ncc(Br)c2n1 (centres unmarked) [Example 67, (4-{4-[(1H-benzimidazol-2-ylmethyl)amino]-8-bromopyrazolo[1,5-a][1,3,5]triazin-2-yl}morpholin-3-yl)methanol]"
5520 nM,40.2 nM,"CC1(C)CN(c2nc(NCc3nnc(-c4ccccc4)[nH]3)n3ncc(Br)c3n2)CCO1 [Example 68, 8-bromo-2-(2,2-dimethylmorpholin-4-yl)-N-[(5-phenyl-4H-1,2,4-triazol-3-yl)methyl]pyrazolo[1,5-a][1,3,5]triazin-4-amine]"
> 5710 nM,333 nM,"Clc1ccccc1-c1nnc(CNc2nc(N3CCOCC3)nc3c(Br)cnn23)[nH]1 [Example 69, 8-bromo-N-{[5-(2-chlorophenyl)-4H-1,2,4-triazol-3-yl]methyl}-2-(morpholin-4-yl)pyrazolo[1,5-a][1,3,5]triazin-4-amine]"
621 nM,49 nM,"OC[C@@H]1CCCCN1c1nc(NCc2nnc(-c3ccccc3)[nH]2)n2ncc(Br)c2n1 [Example 70, [(2S)-1-(8-bromo-4-{[(5-phenyl-4H-1,2,4-triazol-3-yl)methyl]amino}pyrazolo[1,5-a][1,3,5]triazin-2-yl)piperidin-2-yl]methanol]"
4330 nM,32 nM,"OC[C@H]1CCCCN1c1nc(NCc2nnc(-c3ccccc3)[nH]2)n2ncc(Br)c2n1 [Example 71, [(2R)-1-(8-bromo-4-{[(5-phenyl-4H-1,2,4-triazol-3-yl)methyl]amino}pyrazolo[1,5-a][1,3,5]triazin-2-yl)piperidin-2-yl]methanol]"

# Reference: patent US20230117034A1, “PYRAZOLOTRIAZINES” (Bayer Aktiengesellschaft, priority 2019, published 2023)
